In US7572819B2, “Compounds which potentiate glutamate receptor and uses thereof in medicine” (Glaxo Group Limited, priority 2004, dated 2009):

Target: T1, human GluR2 flip (unedited) AMPA receptor subunit (Homo sapiens, UniProt P42262)
T1 construct: expressed in transfected cells; host or cells: HEK 293 cells, stably expressing or transiently transfected
Assay: Calcium influx fluorescence assay (FLUO4, FLIPR)
Assay type: cell-based
Conditions: HEK 293 cells expressing human GluR2 flip (unedited); 100 μM glutamate; peak fluorescence
Experimental: The ability of the compounds of the invention to potentiate glutamate receptor-mediated response were determined a) by using fluorescent calcium-indicator dyes such as FLUO4 and additionally for some example compounds, b) by measuring glutamate-evoked current recorded from human GluR2 flip unedited HEK293 cells. • a) Calcium Influx Fluorescence Assay
384 well plates were prepared containing confluent monolayer of HEK 293 cells either stably expressing or transiently transfected with human GluR2 flip (unedited) AMPA receptor subunit. These cells form functional homotetrameric AMPA receptors. […]
The cell plate was then transferred into a fluorescence imaging plate based reader [such as the FLIPR384 (Molecular Devices)]. A baseline fluorescence reading was taken over a 10 to 240 second period, and then 10 μL from each plate containing a compound of the invention made up in standard buffer solution (in a concentration range from 100 μM to 10 pM) was added (to give a final concentration in the range 30 μM to 3 pM). The fluorescence was read over 5 minute period. […] The fluoresecence was then read over a 4 minute period. The activities of the compounds of the invention and reference compounds were determined by measuring peak fluorescence after the last addition. […]

T1 sequence (P42262 25-883 isoform P42262-2 limits assumed): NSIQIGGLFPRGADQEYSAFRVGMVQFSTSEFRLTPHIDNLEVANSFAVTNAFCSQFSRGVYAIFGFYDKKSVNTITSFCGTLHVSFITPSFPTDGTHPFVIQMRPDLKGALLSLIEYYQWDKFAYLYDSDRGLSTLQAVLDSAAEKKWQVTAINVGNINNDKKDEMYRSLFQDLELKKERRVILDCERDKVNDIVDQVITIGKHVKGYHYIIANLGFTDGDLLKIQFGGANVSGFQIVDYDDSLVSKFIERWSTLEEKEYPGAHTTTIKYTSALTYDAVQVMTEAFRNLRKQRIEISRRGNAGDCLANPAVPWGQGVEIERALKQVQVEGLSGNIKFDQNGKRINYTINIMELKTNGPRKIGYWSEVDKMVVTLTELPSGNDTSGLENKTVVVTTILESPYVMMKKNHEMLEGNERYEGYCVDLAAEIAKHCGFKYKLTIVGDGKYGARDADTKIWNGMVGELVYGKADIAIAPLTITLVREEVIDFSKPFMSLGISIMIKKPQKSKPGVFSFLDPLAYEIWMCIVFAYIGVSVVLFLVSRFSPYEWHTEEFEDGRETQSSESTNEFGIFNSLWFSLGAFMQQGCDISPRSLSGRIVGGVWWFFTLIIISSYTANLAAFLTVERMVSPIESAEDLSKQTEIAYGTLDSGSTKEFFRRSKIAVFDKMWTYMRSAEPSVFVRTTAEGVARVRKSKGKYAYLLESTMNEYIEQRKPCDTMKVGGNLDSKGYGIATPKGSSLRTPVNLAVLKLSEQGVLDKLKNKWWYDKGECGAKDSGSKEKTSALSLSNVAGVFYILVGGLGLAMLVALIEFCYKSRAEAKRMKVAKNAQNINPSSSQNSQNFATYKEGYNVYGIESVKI

EC50: 10 µM
Compound: CC(C)S(=O)(=O)NC1Cc2ccc(-c3ccsc3)cc2C1 (stereo not shown) [Example 4, N-[5-(3-thienyl)-2,3-dihydro-1H-inden-2-yl]-2-propanesulfonamide]
